Experimental data from patent US10696672B2 (Pliant Therapeutics, Inc., priority 2016, dated 2020).

molecular target: recombinant human integrin αvβ6 (Homo sapiens (Human), UniProt P06756+P18564); test: Solid phase integrin αvβ6 binding assay; conditions: plate-coated integrin; recombinant TGFβ1 LAP 0.67 ug/ml as ligand; 2 hours at 25° C.; read-out: αvβ6 Inhibition IC50 (nM) - range
Method: Example B1—Solid Phase Integrin αvβ6 Binding Assay
Microplates were coated with recombinant human integrin αvβ6 (2 ug/ml) in PBS (100 ul/well 25° C., overnight). The coating solution was removed, washed with wash buffer (0.05% Tween 20; 0.5 mM MnCl2; in 1×TBS). Plate was blocked with 200 ul/well of Block Buffer (1% BSA; 5% sucrose; 0.5 mM MnCl2; in 1×TBS) at 37° C. for 2 h. Dilutions of testing compounds and recombinant TGFβ1 LAP (0.67 ug/ml) in binding buffer (0.05% BSA; 2.5% sucrose; 0.5 mM MnCl2; in 1×TBS) were added. The plate was incubated for 2 hours at 25° C., washed, and incubated for 1 hour with Biotin-Anti-hLAP. Bound antibody was detected by peroxidase-conjugated streptavidin. The IC50 values for testing compounds were calculated by a four-parameter logistic regression.
The compounds tested were compound samples prepared according to procedures described in the Synthetic Examples section, with the stereochemical purity as indicated in the Examples indicated.

Chain of recombinant human integrin αvβ6 (P06756 31-992): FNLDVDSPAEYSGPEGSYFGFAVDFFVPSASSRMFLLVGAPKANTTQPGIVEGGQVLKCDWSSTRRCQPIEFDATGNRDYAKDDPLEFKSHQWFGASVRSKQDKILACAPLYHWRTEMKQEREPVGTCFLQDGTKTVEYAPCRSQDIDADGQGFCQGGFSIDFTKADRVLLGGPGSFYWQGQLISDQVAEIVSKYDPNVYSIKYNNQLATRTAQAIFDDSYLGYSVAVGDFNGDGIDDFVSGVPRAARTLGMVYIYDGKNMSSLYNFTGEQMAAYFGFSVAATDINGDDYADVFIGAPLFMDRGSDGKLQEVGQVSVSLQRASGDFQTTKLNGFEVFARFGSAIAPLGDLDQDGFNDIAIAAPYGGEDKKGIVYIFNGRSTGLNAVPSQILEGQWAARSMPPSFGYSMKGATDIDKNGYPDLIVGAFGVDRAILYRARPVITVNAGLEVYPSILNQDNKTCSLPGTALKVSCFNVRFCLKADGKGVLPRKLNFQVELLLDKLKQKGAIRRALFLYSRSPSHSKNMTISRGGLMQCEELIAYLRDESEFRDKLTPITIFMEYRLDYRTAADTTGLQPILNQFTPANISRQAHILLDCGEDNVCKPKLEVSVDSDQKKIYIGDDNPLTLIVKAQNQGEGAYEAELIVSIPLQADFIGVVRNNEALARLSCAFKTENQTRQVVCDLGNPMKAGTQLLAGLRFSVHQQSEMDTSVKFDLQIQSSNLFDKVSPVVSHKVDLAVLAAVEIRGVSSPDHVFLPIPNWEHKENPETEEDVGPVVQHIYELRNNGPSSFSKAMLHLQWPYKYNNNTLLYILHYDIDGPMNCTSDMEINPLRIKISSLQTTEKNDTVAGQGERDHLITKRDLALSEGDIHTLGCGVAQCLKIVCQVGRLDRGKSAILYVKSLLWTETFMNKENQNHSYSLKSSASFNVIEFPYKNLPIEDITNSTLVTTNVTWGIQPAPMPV
Chain of recombinant human integrin αvβ6 (P18564 22-707): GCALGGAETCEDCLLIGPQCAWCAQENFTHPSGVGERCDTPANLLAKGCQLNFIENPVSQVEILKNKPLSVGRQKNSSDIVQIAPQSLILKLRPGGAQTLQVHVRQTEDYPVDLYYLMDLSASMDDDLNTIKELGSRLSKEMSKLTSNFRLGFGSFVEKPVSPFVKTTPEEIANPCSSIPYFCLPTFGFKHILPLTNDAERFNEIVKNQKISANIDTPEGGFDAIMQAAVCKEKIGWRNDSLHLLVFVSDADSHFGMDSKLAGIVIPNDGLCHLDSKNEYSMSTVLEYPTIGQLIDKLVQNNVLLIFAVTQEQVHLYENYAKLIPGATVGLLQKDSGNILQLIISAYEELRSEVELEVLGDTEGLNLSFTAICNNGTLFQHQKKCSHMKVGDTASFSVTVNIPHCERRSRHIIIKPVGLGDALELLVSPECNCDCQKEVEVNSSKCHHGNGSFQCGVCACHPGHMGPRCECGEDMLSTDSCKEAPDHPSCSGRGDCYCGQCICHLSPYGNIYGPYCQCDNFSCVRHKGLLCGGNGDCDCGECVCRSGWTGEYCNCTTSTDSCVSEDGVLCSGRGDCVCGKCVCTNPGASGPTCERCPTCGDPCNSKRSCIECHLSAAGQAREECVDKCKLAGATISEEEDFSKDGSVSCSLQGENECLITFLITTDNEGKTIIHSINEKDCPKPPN

Compound | IC50 [nM]
Cn1ncc2cc(C(=O)N[C@@H](CCN3CC[C@@H](CCc4ccc5c(n4)NCCC5)C3)C(=O)O)ccc21 [Compound 25a, (S)-2-(1-methyl-1H-indazole-5-carboxamido)-4-((R)-3-(2-(5,6,7,8-tetrahydro-1,8-naphthyridin-2-yl)ethyl)pyrrolidin-1-yl)butanoic acid] | 50 to 250
O=C(N[C@@H](CCN1C2CCC1C(CCc1ccc3c(n1)NCCC3)C2)C(=O)O)c1cc(F)cc(C(F)(F)F)c1 (stereo partly drawn) [Compound 141] | < 50
Cc1cc(C)n(-c2cccc(C(=O)N[C@@H](CCN3CC[C@@H](CCc4ccc5c(n4)NCCC5)C3)C(=O)O)c2)n1 [Compound 13a, (S)-2-(3-(3,5-dimethyl-1H-pyrazol-1-yl)benzamido)-4-((R)-3-(2-(5,6,7,8-tetrahydro-1,8-naphthyridin-2-yl)ethyl)pyrrolidin-1-yl)butanoic acid] | < 50
Cc1cc(C)n(-c2cccc(C(=O)N[C@@H](CCN3CC(CCc4ccc5c(n4)NCCC5)CC(F)(F)C3)C(=O)O)c2)n1 (stereo partly drawn) [Compound 42] | 250 to 1000
CC(C)(Cc1ccccc1)C(=O)N[C@@H](CCN1CC[C@@H](CCc2ccc3c(n2)NCCC3)C1)C(=O)O [Compound 45] | < 50
CC(C)(C)OC(=O)N[C@@H](CCN1CC[C@@H](CCc2ccc3c(n2)NCCC3)C1)C(=O)O [Compound 2a, (S)-2-((tert-butoxycarbonyl)amino)-4-((R)-3-(2-(5,6,7,8-tetrahydro-1,8-naphthyridin-2-yl)ethyl)pyrrolidin-1-yl)butanoic acid] | < 50
O=C(N[C@H](CCN1CC[C@@H](CCc2ccc3c(n2)NCCC3)C1)C(=O)O)c1c(Cl)cccc1Cl [Compound 6c, (R)-2-(2,6-dichlorobenzamido)-4-((R)-3-(2-(5,6,7,8-tetrahydro-1,8-naphthyridin-2-yl)ethyl)pyrrolidin-1-yl)butanoic acid] | 250 to 1000
CC(C)Cn1ncc2c(C(=O)N[C@@H](CCN3CC[C@@H](CCc4ccc5c(n4)NCCC5)C3)C(=O)O)cccc21 [Compound 61] | < 50
O=C(N[C@@H](CCN1CC[C@@H](CCc2ccc3c(n2)NCCC3)C1)C(=O)O)[C@H]1CCN(c2ccccn2)C1 [Compound 46] | < 50
Cc1cc(C)n(-c2cccc(C(=O)N[C@H](CCN3CC[C@@H](CCc4ccc5c(n4)NCCC5)C3)C(=O)O)c2)n1 [Compound 13c, (R)-2-(3-(3,5-dimethyl-1H-pyrazol-1-yl)benzamido)-4-((R)-3-(2-(5,6,7,8-tetrahydro-1,8-naphthyridin-2-yl)ethyl)pyrrolidin-1-yl)butanoic acid] | < 50
Cn1ncc2c(C(=O)N[C@@H](CCN3CC[C@@H](CCc4ccc5c(n4)NCCC5)C3)C(=O)O)cccc21 [Compound 27a, (S)-2-(1-methyl-1H-indazole-4-carboxamido)-4-((R)-3-(2-(5,6,7,8-tetrahydro-1,8-naphthyridin-2-yl)ethyl)pyrrolidin-1-yl)butanoic acid] | < 50
Cn1nccc1-c1cccc(C(=O)N[C@@H](CCN2CC[C@@H](CCc3ccc4c(n3)NCCC4)C2)C(=O)O)c1 [Compound 57] | < 50
CC(C)(C(=O)N[C@@H](CCN1CC[C@@H](CCc2ccc3c(n2)NCCC3)C1)C(=O)O)c1ccccc1 [Compound 44] | < 50
O=C(N[C@@H](CCN1CC[C@@H](CCc2ccc3c(n2)NCCC3)C1)C(=O)O)c1ccccn1 [Compound 17a, (S)-2-(picolinamido)-4-((R)-3-(2-(5,6,7,8-tetrahydro-1,8-naphthyridin-2-yl)ethyl)pyrrolidin-1-yl)butanoic acid] | 50 to 250
N#Cc1cccc(C(=O)N[C@@H](CCN2CC[C@@H](CCc3ccc4c(n3)NCCC4)C2)C(=O)O)c1 [Compound 48] | < 50
O=C(N[C@@H](CCN1CC[C@@H](CCc2ccc3c(n2)NCCC3)C1)C(=O)O)c1ccc(C(F)(F)F)cc1 [Compound 10a, (S)-4-((R)-3-(2-(5,6,7,8-tetrahydro-1,8-naphthyridin-2-yl)ethyl)pyrrolidin-1-yl)-2-(4-(trifluoromethyl)benzamido)butanoic acid] | < 50
CC(C)(C)OC(=O)N[C@@H](CCN1CC(CCc2ccc3c(n2)NCCC3)CC(F)(F)C1)C(=O)O (stereo partly drawn) [Compound 40] | 250 to 1000
O=C(N[C@@H](CCN1CC[C@@H](CCc2ccc3c(n2)NCCC3)C1)C(=O)O)c1cccc(C(F)(F)F)c1 [Compound 9a, (S)-4-((R)-3-(2-(5,6,7,8-tetrahydro-1,8-naphthyridin-2-yl)ethyl)pyrrolidin-1-yl)-2-(3-(trifluoromethyl)benzamido)butanoic acid] | < 50
O=C(NC(CCN1CC[C@@H](CCc2ccc3c(n2)NCCC3)C1)C(=O)O)c1c(Cl)cncc1Cl (stereo partly drawn) [20a and 20c] | < 50
CCC(CC)C(=O)N[C@@H](CCN1C2CCC1C(CCc1ccc3c(n1)NCCC3)C2)C(=O)O (stereo partly drawn) [Compound 145] | > 1000
O=C(N[C@@H](CCN1CC[C@@H](CCc2ccc3c(n2)NCCC3)C1)C(=O)O)c1cccc2[nH]ncc12 [Compound 35] | < 50
O=C(N[C@@H](CCN1CC(CCc2ccc3c(n2)NCCC3)C(F)(F)C1)C(=O)O)c1ccccc1 (stereo partly drawn) [Compound 39] | 50 to 250
O=C(N[C@@H](CCN1CC[C@@](F)(CCc2ccc3c(n2)NCCC3)C1)C(=O)O)c1c(Cl)cccc1Cl [Compound 63] | 50 to 250

Further lines, results first:

IC50 [nM] | Compound
50 to 250 | O=C(O)[C@H](CCN1CC[C@@H](CCc2ccc3c(n2)NCCC3)C1)NC(=O)[C@@H]1CCN1Cc1ccccc1 [Compound 81]
< 50 | Cn1nccc1-c1cccc(C(=O)N[C@H](CCN2CC[C@@H](CCc3ccc4c(n3)NCCC4)C2)C(=O)O)c1 [Compound 86]
50 to 250 | O=C(N[C@@H](CCN1CC(OCCc2ccc3c(n2)NCCC3)C1)C(=O)O)C1CCOCC1 [Compound 124]
> 1000 | CC(C)(C(=O)N[C@@H](CCN1CC(CCc2ccc3c(n2)NCCC3)C1)C(=O)O)c1cccnc1 [Compound 144]
< 50 | CC(C)(O)CN1CCC[C@H]1C(=O)N[C@@H](CCN1CC[C@@H](CCc2ccc3c(n2)NCCC3)C1)C(=O)O [Compound 77]
< 50 | Cn1cc(-c2cccc(C(=O)N[C@H](CCN3CC[C@@H](CCc4ccc5c(n4)NCCC5)C3)C(=O)O)c2)cn1 [Compound 87]
250 to 1000 | CC(C)(C(=O)N[C@@H](CCN1CC[C@@H](OCCc2ccc3c(n2)NCCC3)C1)C(=O)O)c1cccnc1 [Compound 122]
250 to 1000 | CC(C)(O)CC1NCCC1C(=O)N[C@@H](CCN1CC(OCCc2ccc3c(n2)NCCC3)C1)C(=O)O (stereo partly drawn) [Compound 134]
> 1000 | CC(C)(C)OC(=O)N[C@@H](CCN1CC[C@@H](OCc2ccc3c(n2)NCCC3)C1)C(=O)O [Compound 111]
250 to 1000 | O=C(O)[C@H](CCN1CC[C@@H](OCCc2ccc3c(n2)NCCC3)C1)NC(=O)[C@@H]1CCCN1c1ccccc1 [Compound 133]
< 50 | O=C(N[C@@H](CCN1CC[C@@H](CCc2ccc3c(n2)NCCC3)C1)C(=O)O)c1cccc(F)c1F [Compound 67]
< 50 | O=C(N[C@@H](CCN1CC[C@H](CCc2ccc3c(n2)NCCC3)C1)C(=O)O)c1c(Cl)cccc1Cl [Compound 146]
< 50 | O=C(N[C@@H](CCN1CCC[C@](F)(CCc2ccc3c(n2)NCCC3)C1)C(=O)O)c1cc(F)cc(F)c1 [Compound 104]
250 to 1000 | O=C(N[C@@H](CCN1CCC[C@@](F)(CCc2ccc3c(n2)NCCC3)C1)C(=O)O)c1c(Cl)cccc1Cl [Compound 101]
250 to 1000 | CC(C)(C(=O)N[C@@H](CCN1CC(OCCc2ccc3c(n2)NCCC3)C1)C(=O)O)c1cccnc1 [Compound 128]
250 to 1000 | O=C(N[C@@H](CCN1CC(CCc2ccc3c(n2)NCCC3)C1)C(=O)O)c1c(Cl)cccc1Cl [Compound 139]
250 to 1000 | CCC(CC)C(=O)N[C@@H](CCN1CCC[C@](F)(CCc2ccc3c(n2)NCCC3)C1)C(=O)O [Compound 108]
< 50 | CC(C)(C)c1cccc(C(=O)N[C@@H](CCN2CC[C@@H](CCc3ccc4c(n3)NCCC4)C2)C(=O)O)c1 [Compound 68]
> 1000 | CC(C)(Cc1ccccc1)C(=O)N[C@@H](CCN1CC(CCc2ccc3c(n2)NCCC3)C1)C(=O)O [Compound 137]
250 to 1000 | O=C(O)[C@H](CCN1CC(CCc2ccc3c(n2)NCCC3)C1)NC(=O)[C@@H]1CCCN1c1ccccc1 [Compound 129]
> 1000 | CC(C)(O)CN1CCC[C@H]1C(=O)N[C@@H](CCN1CC[C@@H](OCCc2ccc3c(n2)NCCC3)C1)C(=O)O [Compound 142]
50 to 250 | O=C(N[C@@H](CCN1CCC[C@@](F)(CCc2ccc3c(n2)NCCC3)C1)C(=O)O)C1CCC(F)(F)CC1 [Compound 107]
50 to 250 | O=C(N[C@@H](CCN1CC[C@](F)(CCc2ccc3c(n2)NCCC3)C1)C(=O)O)c1c(Cl)cccc1Cl [Compound 64]
250 to 1000 | CC(C)(Cc1ccccc1)C(=O)N[C@@H](CCN1CC[C@@H](OCCc2ccc3c(n2)NCCC3)C1)C(=O)O [Compound 119]
< 50 | O=C(N[C@@H](CCN1CCC[C@](F)(CCc2ccc3c(n2)NCCC3)C1)C(=O)O)c1cccc(F)c1Cl [Compound 103]
250 to 1000 | O=C(N[C@@H](CCN1CC[C@@H](OCCc2ccc3c(n2)NCCC3)C1)C(=O)O)[C@@H]1CCN(c2ccccn2)C1 [Compound 125]
< 50 | O=C(N[C@H](CCN1CC[C@@H](CCc2ccc3c(n2)NCCC3)C1)C(=O)O)c1cccc(-c2ccccc2)c1 [Compound 83]
> 1000 | O=C(N[C@@H](CCN1CC[C@@H](OCCc2ccc3c(n2)NCCC3)C1)C(=O)O)[C@H]1CCN(c2ccccn2)C1 [Compound 126]
